Assay results reported in patent US20180298010A1, “PRMT5 INHIBITORS AND USES THEREOF” (Epizyme, Inc., priority 2012, published 2018).

What follows are compounds tested against T1, PRMT5/MEP50 (Homo sapiens, UniProt O14744) (assay: PRMT5 Biochemical Assay (PRMT5/MEP50 enzyme assay on peptide substrate, 3H-SAM Flashplate)).
T1 construct: Flag-PRMT5; 6His-MEP50
Text: General Materials. S-adenosylmethionine (SAM), S-adenosylhomocysteine (SAH), bicine, KCl, Tween20, dimethylsulfoxide (DMSO), bovine skin gelatin (BSG), and Tris(2-carboxyethyl)phosphine hydrochloride solution (TCEP) were purchased from Sigma-Aldrich at the highest level of purity possible. ^3H-SAM was purchase from American Radiolabeled Chemicals with a specific activity of 80 Ci/mmol. 384-well streptavidin Flashplates were purchased from PerkinElmer.
Substrates. Peptide representative of human histone H4 residues 1-15 was synthesized with a C-terminal linker-affinity tag motif and a C-terminal amide cap by 21st Century Biochemicals. The peptide was high high-perfomance liquid chromatography (HPLC) purified to greater than 95% purity and confirmed by liquid chromatography mass spectrometry (LC-MS). The sequence was Ac-[…][K-Biot]-amide (SEQ ID NO.:3).
Molecular Biology: Full-length human PRMT5 (NM_006109.3) transcript variant 1 clone was amplified from a fetal brain cDNA library, incorporating flanking 5′ sequence encoding a FLAG tag ([…]) (SEQ ID NO.:4) fused directly to Ala 2 of PRMT5. Full-length human MEP50 (NM_024102) clone was amplified from a human testis cDNA library incorporating a 5′ sequence encoding a 6-histidine tag (MHHHHHH) (SEQ ID NO.:5) fused directly to Arg 2 of MEP50. The amplified genes were sublconed into pENTR/D/TEV (Life Technologies) and subsequently transferred by Gateway™ attL×attR recombination to pDEST8 baculvirus expression vector (Life Technologies).
Protein Expression. Recombinant baculovirus and Baculovirus-Infected Insect Cells (BIIC) were generated according to Bac-to-Bac kit instructions (Life Technologies) and Wasilko, 2006, respectively. Protein over-expression was accomplished by infecting exponentially growing Spodoptera frugiperda (SF9) cell culture at 1.2×10^6cell/ml with a 5000 fold dilution of BIIC stock. Infections were carried out at 27° C. for 72 hours, harvested by centrifugation, and stored at −80° C. for purification.
Protein Purification. […] Flag-PRMT5/6His-MeP50 was eluted with 300 mM Imidazole in the same buffer. The purity of recovered protein was 87%. Reference: Wasilko, D. J. and S. E. Lee: “TIPS: titerless infected-cells preservation and scale-up” Bioprocess J., 5 (2006), pp. 29-32.
General Procedure for PRMT5/MEP50 Enzyme Assays on Peptide Substrates. The assays were all performed in a buffer consisting of 20 mM Bicine (pH=7.6), 1 mM TCEP, 0.005% BSG, and 0.002% Tween20, prepared on the day of use. Compounds in 100% DMSO (1 ul) were spotted into a polypropylene 384-well V-bottom plates (Greiner) using a Platemate Plus outfitted with a 384-channel head (Thermo Scientific). DMSO (1 ul) was added to Columns 11, 12, 23, 24, rows A-H for the maximum signal control and 1 ul of SAH, a known product and inhibitor of PRMT5/MEP50, was added to columns 11, 12, 23, 24, rows I-P for the minimum signal control. A cocktail (40 ul) containing the PRMT5/MEP50 enzyme and the peptide was added by Multidrop Combi (Thermo-Fisher). The compounds were allowed to incubate with PRMT5/MEP50 for 30 min at 25 degrees Celsius, then a cocktail (10 ul) containing ^3H-SAM was added to initiate the reaction (final volume=51 ul). The final concentrations of the components were as follows: PRMT5/MEP50 was 4 nM, ^3H-SAM was 75 nM, peptide was 40 nM, SAH in the minimum signal control wells was 100 uM, and the DMSO concentration was […]. The assays were stopped by the addition of non-radioactive SAM (10 ul) to a final concentration of 600 uM, which dilutes the ^3H-SAM to a level where its incorporation into the peptide substrate is no longer detectable. 50 ul of the reaction in the 384-well polypropylene plate was then transferred to a 384-well Flashplate and the biotinylated peptides were allowed to bind to the streptavidin surface for at least 1 hour before being washed three times with 0.1% Tween20 in a Biotek ELx405 plate washer. […]

T1 sequence (O14744 with tags, fused parts or gaps): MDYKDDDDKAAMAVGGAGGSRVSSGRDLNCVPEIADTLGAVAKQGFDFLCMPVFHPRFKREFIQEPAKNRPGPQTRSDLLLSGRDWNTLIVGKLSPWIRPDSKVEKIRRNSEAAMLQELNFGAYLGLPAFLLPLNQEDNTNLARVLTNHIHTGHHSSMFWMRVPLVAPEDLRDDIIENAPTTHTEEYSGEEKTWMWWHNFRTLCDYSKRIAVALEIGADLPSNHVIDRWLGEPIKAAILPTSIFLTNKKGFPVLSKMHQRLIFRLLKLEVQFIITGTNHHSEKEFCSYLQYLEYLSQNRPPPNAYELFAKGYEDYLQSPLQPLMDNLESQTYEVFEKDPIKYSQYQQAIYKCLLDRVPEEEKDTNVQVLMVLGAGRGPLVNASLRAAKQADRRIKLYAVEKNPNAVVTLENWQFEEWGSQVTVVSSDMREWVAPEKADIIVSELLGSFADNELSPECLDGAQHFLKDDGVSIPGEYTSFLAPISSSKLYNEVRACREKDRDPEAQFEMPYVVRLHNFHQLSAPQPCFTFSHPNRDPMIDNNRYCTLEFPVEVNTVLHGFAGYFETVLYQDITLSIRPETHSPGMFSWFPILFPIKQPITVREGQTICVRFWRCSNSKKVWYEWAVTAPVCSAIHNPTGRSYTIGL
T1 sequence (Q9BQA1 with tags, fused parts or gaps partner): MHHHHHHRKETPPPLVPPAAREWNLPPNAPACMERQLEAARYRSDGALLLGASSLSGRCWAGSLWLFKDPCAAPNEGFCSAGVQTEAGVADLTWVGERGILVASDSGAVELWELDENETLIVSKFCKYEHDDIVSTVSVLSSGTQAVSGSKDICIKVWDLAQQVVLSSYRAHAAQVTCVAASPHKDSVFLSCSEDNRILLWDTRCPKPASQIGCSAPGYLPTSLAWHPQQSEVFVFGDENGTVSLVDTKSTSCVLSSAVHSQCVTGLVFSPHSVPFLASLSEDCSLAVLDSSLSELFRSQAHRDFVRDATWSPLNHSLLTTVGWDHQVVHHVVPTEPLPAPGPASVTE

Structure (SMILES) | IC50 [nM]
OC(COc1cccc(-c2cc(Cl)cc(C(F)(F)F)c2)c1)CN1CCc2ccccc2C1 (stereo not shown) [Compound 128] | 1000 to 10000
CS(=O)(=O)Nc1ccc(-c2cccc(OCC(O)CN3CCc4ccccc4C3)c2)cc1 (stereo not shown) [Compound 129] | 101 to 1000
CS(=O)(=O)c1cccc(-c2cccc(OCC(O)CN3CCc4ccccc4C3)c2)c1 (stereo not shown) [Compound 130] | 101 to 1000
CS(=O)(=O)c1ccccc1-c1cccc(OCC(O)CN2CCc3ccccc3C2)c1 (stereo not shown) [Compound 131] | 101 to 1000
OC(COc1cccc(-c2ccccc2C(F)(F)F)c1)CN1CCc2ccccc2C1 (stereo not shown) [Compound 132] | 101 to 1000
OC(COc1cccc(-c2ccc(C(F)(F)F)cc2)c1)CN1CCc2ccccc2C1 (stereo not shown) [Compound 133] | 1000 to 10000
COc1ccc(Cl)cc1-c1cccc(OCC(O)CN2CCc3ccccc3C2)c1 (stereo not shown) [Compound 134, 1-((5′-chloro-2′-methoxy-[1,1′-biphenyl]-3-yl)oxy)-3-(3,4-dihydroisoquinolin-2(1H)-yl)propan-2-ol] | 101 to 1000
Cn1ncc2ccc(-c3cc(COCC(O)CN4CCc5ccccc5C4)on3)cc21 (stereo not shown) [Compound 136] | 101 to 1000
CC(=O)c1ccc(-c2cccc(OCC(O)CN3CCc4ccccc4C3)c2)cc1 (stereo not shown) [Compound 137] | 101 to 1000
Cc1ccc(F)c(-c2cccc(OCC(O)CN3CCc4ccccc4C3)c2)c1 (stereo not shown) [Compound 138] | 101 to 1000
OC(COc1cccc(-c2cccnc2F)c1)CN1CCc2ccccc2C1 (stereo not shown) [Compound 139] | 101 to 1000
OC(COc1cccc(-c2cncnc2)c1)CN1CCc2ccccc2C1 (stereo not shown) [Compound 140] | 1000 to 10000
COc1cccc2c1CCN(CC(O)COc1cccc(-c3ccc4ncn(C)c4c3)c1)C2 (stereo not shown) [Compound 142] | 1000 to 10000
CCOC(=O)CC1c2ccccc2CCN1CC(O)COc1cccc(-c2ccc3ncn(C)c3c2)c1 (stereo not shown) [Compound 144] | 1000 to 10000
Cn1ccc2ccc(-c3cccc(OCC(O)CN4CCc5ccccc5C4)c3)cc21 (stereo not shown) [Compound 147] | 101 to 1000
O=C1NCc2ccc(-c3cccc(OCC(O)CN4CCc5ccccc5C4)c3)cc21 (stereo not shown) [Compound 148] | 101 to 1000

Structure (SMILES) | IC50 [nM]
CC(C)(C)OCc1cccc(-c2cccc(OCC(O)CN3CCc4ccccc4C3)c2)c1 (stereo not shown) [Compound 150] | 101 to 1000
CN(C)c1ccc(-c2cccc(OCC(O)CN3CCc4ccccc4C3)c2)cc1 (stereo not shown) [Compound 151] | 101 to 1000
NC(=O)c1ccc(-c2cccc(OCC(O)CN3CCc4ccccc4C3)c2)cc1 (stereo not shown) [Compound 152] | 101 to 1000
COc1ncc(-c2cccc(OCC(O)CN3CCc4ccccc4C3)c2)cn1 (stereo not shown) [Compound 153] | 1000 to 10000
OC(COc1cccc(-c2ccccc2F)c1)CN1CCc2ccccc2C1 (stereo not shown) [Compound 154] | 101 to 1000
OC(COc1cccc(-c2cnccn2)c1)CN1CCc2ccccc2C1 (stereo not shown) [Compound 155] | 1000 to 10000
O=C1COc2ccc(-c3cccc(OCC(O)CN4CCc5ccccc5C4)c3)cc2N1 (stereo not shown) [Compound 156, 6-(3-(3-(3,4-dihydroisoquinolin-2(1H)-yl)-2-hydroxypropoxy)phenyl)-2H-benzo[b][1,4]oxazin-3(4H)-one] | 101 to 1000
O=C(Nc1cccc(OCC(O)CN2CCc3ccccc3C2)c1)c1cnco1 (stereo not shown) [Compound 158] | 1000 to 10000
O=C(Nc1cccc(OCC(O)CN2CCc3ccccc3C2)c1)c1cocn1 (stereo not shown) [Compound 159] | 1000 to 10000
Cn1nccc1C(=O)Nc1cccc(OCC(O)CN2CCc3ccccc3C2)c1 (stereo not shown) [Compound 160] | 1000 to 10000
O=C(Nc1cccc(OCC(O)CN2CCc3ccccc3C2)c1)c1cncnc1 (stereo not shown) [Compound 161] | 1000 to 10000
Cn1ccc(C(=O)Nc2cccc(OCC(O)CN3CCc4ccccc4C3)c2)n1 (stereo not shown) [Compound 162] | 1000 to 10000
O=C(Nc1cccc(OCC(O)CN2CCc3ccccc3C2)c1)c1cccnn1 (stereo not shown) [Compound 164] | 1000 to 10000
OC(COc1cccc(-c2ccc3cnoc3c2)c1)CN1CCc2ccccc2C1 (stereo not shown) [Compound 166] | 1000 to 10000
OC(COc1cccc(-c2ccccc2Oc2ccccc2)c1)CN1CCc2ccccc2C1 (stereo not shown) [Compound 167, 1-(3,4-dihydroisoquinolin-2(1H)-yl)-3-((2′-phenoxy-[1,1′-biphenyl]-3-yl)oxy)propan-2-ol] | 101 to 1000
